# Where two headings read alike, the source gives them in different places.
# What was measured:
# [1] = system: Colorado potato beetle; settings: cited from earlier work
# [2] = system: Spodoptera frugiperda; assay: Foliar spray application on cotton, larval mortality of Spodoptera frugiperda; format: in vivo; settings: 4 DAT (days after treatment)
# Excerpt: For example on both Spodoptera frugiperda and Plutella xylostella similar activities were obtained for the same rates: […]
# [3] = system: Diabrotica balteata; assay: Transovarial effects on Diabrotica balteata adults fed on sprayed bean plants (% egg mortality); format: in vivo; settings: for mortality at 10 ppm / mortality at 25 ppm / mortality at 50 ppm: Diabrotica balteata
# Method: The following IGRs in Table 1 were tested for their transovarial effects on Diabrotica balteata by observing percentage egg mortality.
# Bean plants (Phaseolus vulgaris, var. Amata) were treated in an automatic spray chamber (ARO-1) with around 500 l/ha. After drying of the spray deposits, plants were placed in gauze cages and infested with newly hatched (0-24 h old) Diabrotica balteata adults. After seven days, treated plants were removed and replaced by non-treated plants. From day seven to day 38 eggs were collected in three-day intervals, counted and checked on number of hatched larvae (% egg mortality). Percentage egg mortality was calculated as the number of unhatched eggs per total number of eggs laid.
# [4] = egg laying period 1, read-out: % egg mortality: on egg laying period 1
# [5] = egg laying period 2, read-out: % egg mortality: on egg laying period 2
# [6] = egg laying period 3, read-out: % egg mortality: on egg laying period 3
# [7] = egg laying period 4, read-out: % egg mortality: on egg laying period 4
# [8] = egg laying period 5, read-out: % egg mortality: on egg laying period 5
# [9] = egg laying period 6, read-out: % egg mortality: on egg laying period 6
# [10] = egg laying period 7, read-out: % egg mortality: on egg laying period 7
# [11] = egg laying period 8, read-out: % egg mortality: on egg laying period 8
# [12] = egg laying period 9, read-out: % egg mortality: on egg laying period 9
# [13] = egg laying period 10, read-out: % egg mortality: on egg laying period 10
# [14] = egg laying period 11, read-out: % egg mortality: on egg laying period 11
# [15] = egg laying period 12, read-out: % egg mortality: on egg laying period 12
smiles,measurement,setting,value
"O=C(NC(=O)c1c(F)cccc1F)Nc1ccc(OC(F)(F)C(F)OC(F)(F)F)c(Cl)c1 (single isomer, unassigned; (+)) [Rimon, (+)-I-[3-chloro-4-(1,1,2-trifluoro-2-trifluoromethoxyethoxy)phenyl]-3-(2,6-difluorobenzoyl)urea]",ability to economically stop egg hatching in Colorado potato beetle,[1]; 25 g AI ha^-1 (Cutler et al.),insufficient
same,viability of Colorado potato beetle eggs,"[1]; adults feeding on novaluron-treated potato leaves, 87 g AI ha^-1 (Alyokhin et al.)",reduced viability
same,time of feeding on untreated leaves after which the effect reverses,[1]; after 87 g AI ha^-1 (Alyokhin et al.),48 to 96 h
same,LC50,[2],LC50 = 1.1 ppm
same,"total number of sterilised (unhatched) eggs, considered over the whole test period",[3]; 5 g AI ha^-1,≈ 25%
same,"total number of sterilised (unhatched) eggs, considered over the whole test period",[3]; 12.5 g AI ha^-1,≈ 25%
same,"total number of sterilised (unhatched) eggs, considered over the whole test period",[3]; 25 g AI ha^-1,≈ 90%
same,days of effect (egg hatch inhibition) after a single foliar treatment,[3]; 50 g AI/ha during adult feeding on the crop plant,up to 21 days
same,mortality at 10 ppm,[3]; [4],100%
same,mortality at 10 ppm,[3]; [5],100%
same,mortality at 10 ppm,[3]; [6],99%
same,mortality at 10 ppm,[3]; [7],50%
same,mortality at 10 ppm,[3]; [8],10%
same,mortality at 10 ppm,[3]; [9],13%
same,mortality at 10 ppm,[3]; [10],10%
same,mortality at 10 ppm,[3]; [11],11%
same,mortality at 10 ppm,[3]; [12],18%
same,mortality at 10 ppm,[3]; [13],9%
same,mortality at 10 ppm,[3]; [14],9%
same,mortality at 10 ppm,[3]; [15],12%
same,mortality at 25 ppm,[3]; [4],100%
same,mortality at 25 ppm,[3]; [5],100%
same,mortality at 25 ppm,[3]; [6],100%
same,mortality at 25 ppm,[3]; [7],93%
same,mortality at 25 ppm,[3]; [9],25%
same,mortality at 25 ppm,[3]; [10],14%
same,mortality at 25 ppm,[3]; [12],22%
same,mortality at 25 ppm,[3]; [13],7%
same,mortality at 25 ppm,[3]; [14],0%
same,mortality at 25 ppm,[3]; [15],4%
same,mortality at 50 ppm,[3]; [5],100%
same,mortality at 50 ppm,[3]; [6],100%
same,mortality at 50 ppm,[3]; [7],100%
same,mortality at 50 ppm,[3]; [8],100%
same,mortality at 50 ppm,[3]; [9],100%
same,mortality at 50 ppm,[3]; [10],100%
same,mortality at 50 ppm,[3]; [11],100%
same,mortality at 50 ppm,[3]; [12],92%
same,mortality at 50 ppm,[3]; [13],29%
same,mortality at 50 ppm,[3]; [14],96%
same,mortality at 50 ppm,[3]; [15],41%
same,Spray interval,[3]; Rate 5 g AI/ha,7 days
same,Spray interval,[3]; Rate 12.5 g AI/ha,10 days
same,Spray interval,[3]; Rate 25 g AI/ha,21 days
same,rank for transovarial activity on Diabrotica balteata,[3]; among the IGRs tested,by far the best compound
same,Transovarial effects on treated adults of Diabrotica balteata,[3]; at the used dose rates,Transovarial effects can be observed

# — patent US20150087622A1, “NEW METHOD OF USE OF A PESTICIDE” (SYNGENTA PARTICIPATIONS AG, priority 2012, published 2015)
